# Active and inactive are the calls of the source. The calls are words filed in the database; no cut-off is given here.
# How the values were obtained:
# [1] = tested on: Huh-7; assay: Cytotoxicity against human HuH7 cells assessed as cell viability after 48 hrs by Hoechst 33342 staining based assay; format: functional; details: Huh-7, 48 h
# [2] = tested on: MDA-MB-231; assay: Cytotoxicity against human MDA-MB-231 cells assessed as cell viability after 48 hrs by Hoechst 33342 staining based assay; format: functional; details: MDA-MB-231, 48 h
# [3] = tested on: PC-3; assay: Cytotoxicity against human PC3 cells assessed as cell viability after 48 hrs by Hoechst 33342 staining based assay; format: functional; details: PC-3, 48 h
# [4] = tested on: NCI-H727; assay: Cytotoxicity against human NCI-H727 cells assessed as cell viability after 48 hrs by Hoechst 33342 staining based assay; format: functional; details: NCI-H727, 48 h
# [5] = tested on: HaCaT; assay: Cytotoxicity against human HaCaT cells assessed as cell viability after 48 hrs by Hoechst 33342 staining based assay; format: functional
# [6] = tested on: Fibroblast; assay: Cytotoxicity against human fibroblasts assessed as cell viability after 48 hrs by Hoechst 33342 staining based assay
# [7] = tested on: RL; assay: Cytotoxicity against human RL assessed as cell viability after 48 hrs by Hoechst 33342 staining based assay; format: functional
# [8] = tested on: MCF7; assay: Cytotoxicity against human MCF7 assessed as cell viability after 48 hrs by Hoechst 33342 staining based assay; format: functional; details: MCF7, 48 h
# [9] = tested on: Huh-7; assay: Cell cycle arrest in human HuH7 cells assessed as accumulation at S phase at 10 uM measured after 48 hrs by Hoechst/BrdU staining based fluorescence assay (reference value: 44%); format: functional
# [10] = tested on: MDA-MB-231; assay: Cell cycle arrest in human MDA-MB-231 cells harboring p53 mutant assessed as accumulation at S phase at 10 uM measured after 48 hrs by Hoechst/BrdU staining based fluorescence assay (reference value: 42.2%); format: functional
# [11] = tested on: HCT-116; assay: Cell cycle arrest in human HCT116 cells harboring wild-type p53 assessed as accumulation at S phase at 10 uM measured after 48 hrs by Hoechst/BrdU staining based fluorescence assay (reference value: 68.4%); format: functional
# [12] = tested on: PC-3; assay: Cell cycle arrest in human PC3 cells harboring p53 mutant assessed as accumulation at S phase at 10 uM measured after 48 hrs by Hoechst/BrdU staining based fluorescence assay (reference value: 40.8%); format: functional
# [13] = tested on: NCI-H727; assay: Cell cycle arrest in human NCI-H727 cells harboring p53 mutant assessed as mitotic index at 10 uM measured after 48 hrs by Hoechst staining based fluorescence assay (reference value: 1.1); format: functional
# [14] = tested on: NCI-H727; assay: Cell cycle arrest in human NCI-H727 cells harboring p53 mutant assessed as accumulation at S phase at 10 uM measured after 48 hrs by Hoechst/BrdU staining based fluorescence assay (reference value: 40.3%); format: functional
# [15] = tested on: HaCaT; assay: Cell cycle arrest in human HaCaT cells harboring […] p53 assessed as accumulation at S phase at 10 uM measured after 48 hrs by Hoechst/BrdU staining based fluorescence assay (reference value: 52.3%); format: functional
# [16] = tested on: Huh-7; assay: Cell cycle arrest in human HuH7 cells assessed as accumulation at S phase at 25 uM measured after 48 hrs by Hoechst/BrdU staining based fluorescence assay (reference value: 44%); format: functional
# [17] = tested on: MDA-MB-231; assay: Cell cycle arrest in human MDA-MB-231 cells harboring p53 mutant assessed as accumulation at S phase at 25 uM measured after 48 hrs by Hoechst/BrdU staining based fluorescence assay (reference value: 42.2%); format: functional
# [18] = tested on: HCT-116; assay: Cell cycle arrest in human HCT116 cells harboring wild-type p53 assessed as accumulation at S phase at 25 uM measured after 48 hrs by Hoechst/BrdU staining based fluorescence assay (reference value: 68.4%); format: functional
# [19] = tested on: PC-3; assay: Cell cycle arrest in human PC3 cells harboring p53 mutant assessed as accumulation at S phase at 25 uM measured after 48 hrs by Hoechst/BrdU staining based fluorescence assay (reference value: 40.8%); format: functional
# [20] = tested on: NCI-H727; assay: Cell cycle arrest in human NCI-H727 cells harboring p53 mutant assessed as mitotic index at 25 uM measured after 48 hrs by Hoechst staining based fluorescence assay (reference value: 1.1); format: functional
# [21] = tested on: NCI-H727; assay: Cell cycle arrest in human NCI-H727 cells harboring p53 mutant assessed as accumulation at S phase at 25 uM measured after 48 hrs by Hoechst/BrdU staining based fluorescence assay (reference value: 40.3%); format: functional
# [22] = tested on: HaCaT; assay: Cell cycle arrest in human HaCaT cells harboring […] p53 assessed as accumulation at S phase at 25 uM measured after 48 hrs by Hoechst/BrdU staining based fluorescence assay (reference value: 52.3%); format: functional
# [23] = tested on: HCT-116; assay: Cell cycle arrest in human HCT116 cells harboring wild-type p53 assessed as accumulation at M phase at 25 uM measured after 48 hrs by Hoechst staining based fluorescence assay (reference value: 2.3 to […]); format: functional
# [24] = tested on: HCT-116; assay: Cell cycle arrest in human HCT116 cells harboring wild-type p53 assessed as accumulation at M phase at 50 uM measured after 48 hrs by Hoechst staining based fluorescence assay (reference value: 2.3 to […]); format: functional
# [25] = tested on: HCT-116; assay: Cell cycle arrest in human HCT116 cells harboring wild-type p53 assessed as accumulation at S phase at 50 uM measured after 48 hrs by Hoechst/BrdU staining based fluorescence assay (reference value: 68%); format: functional
# [26] = tested on: Huh-7; assay: Cell cycle arrest in human HuH7 cells assessed as accumulation at G1/S phase by Hoechst staining based fluorescence assay; format: functional
# [27] = tested on: MDA-MB-231; assay: Cell cycle arrest in human MDA-MB-231 cells assessed as accumulation at G1/S phase by Hoechst staining based fluorescence assay; format: functional
# [28] = tested on: HCT-116; assay: Cell cycle arrest in human HCT116 cells assessed as accumulation at G1/S phase by Hoechst staining based fluorescence assay; format: functional
# [29] = tested on: HaCaT; assay: Cell cycle arrest in human HaCaT cells assessed as accumulation at G1/S phase by Hoechst staining based fluorescence assay; format: functional
# [30] = tested on: PC-3; assay: Cell cycle arrest in human PC3 cells assessed as accumulation at G2/M phase by Hoechst staining based fluorescence assay; format: functional
# [31] = tested on: HCT-116; assay: Cell cycle arrest in human HCT116 cells harboring wild-type p53 assessed as accumulation at S phase at 25 uM measured after 48 hrs by Hoechst/BrdU staining based fluorescence assay (reference value: 68%); format: functional
# [32] = tested on: Caco-2; assay: Cytotoxicity against human Caco2 cells assessed as cell viability after 48 hrs by Hoechst 33342 staining based assay; format: functional; details: Caco-2, 48 h
# [33] = tested on: HCT-116; assay: Cytotoxicity against human HCT116 cells assessed as cell viability after 48 hrs by Hoechst 33342 staining based assay; format: functional; details: HCT-116, 48 h
# [34] = Selectivity index, ratio of IC50 for human fibroblasts to IC50 for human Caco2 cells
# [35] = Selectivity index, ratio of IC50 for human fibroblasts to IC50 for human HCT116 cells
# [36] = Selectivity index, ratio of IC50 for human fibroblasts to IC50 for human PC3 cells
# [37] = Selectivity index, ratio of IC50 for human fibroblasts to IC50 for human HaCaT cells
# [38] = Selectivity index, ratio of IC50 for human fibroblasts to IC50 for human RL cells
# [39] = Selectivity index, ratio of IC50 for human fibroblasts to IC50 for human MCF7 cells
# [40] = tested on: Huh-7; assay: Cell cycle arrest in human HuH7 cells assessed as mitotic index at 10 uM measured after 48 hrs by Hoechst staining based fluorescence assay (reference value: 2.2); format: functional
# [41] = tested on: Caco-2; assay: Cell cycle arrest in human Caco2 cells assessed as mitotic index at 10 uM measured after 48 hrs by Hoechst staining based fluorescence assay (reference value: 3.6); format: functional
# [42] = tested on: Caco-2; assay: Cell cycle arrest in human Caco2 cells assessed as accumulation at S phase at 10 uM measured after 48 hrs by Hoechst/BrdU staining based fluorescence assay (reference value: […]); format: functional
# [43] = tested on: MDA-MB-231; assay: Cell cycle arrest in human MDA-MB-231 cells harboring p53 mutant assessed as mitotic index at 10 uM measured after 48 hrs by Hoechst staining based fluorescence assay (reference value: 2.1); format: functional
# [44] = tested on: HCT-116; assay: Cell cycle arrest in human HCT116 cells harboring wild-type p53 assessed as mitotic index at 10 uM measured after 48 hrs by Hoechst staining based fluorescence assay (reference value: 2.3); format: functional
# [45] = tested on: PC-3; assay: Cell cycle arrest in human PC3 cells harboring p53 mutant assessed as mitotic index at 10 uM measured after 48 hrs by Hoechst staining based fluorescence assay (reference value: 2.5); format: functional
# [46] = tested on: HaCaT; assay: Cell cycle arrest in human HaCaT cells harboring […] p53 assessed as mitotic index at 10 uM measured after 48 hrs by Hoechst staining based fluorescence assay (reference value: 2.6); format: functional
# [47] = tested on: Huh-7; assay: Cell cycle arrest in human HuH7 cells assessed as mitotic index at 25 uM measured after 48 hrs by Hoechst staining based fluorescence assay (reference value: 2.2); format: functional
# [48] = tested on: Caco-2; assay: Cell cycle arrest in human Caco2 cells assessed as mitotic index at 25 uM measured after 48 hrs by Hoechst staining based fluorescence assay (reference value: 3.6); format: functional
# [49] = tested on: Caco-2; assay: Cell cycle arrest in human Caco2 cells assessed as accumulation at S phase at 25 uM measured after 48 hrs by Hoechst/BrdU staining based fluorescence assay (reference value: […]); format: functional
# [50] = tested on: MDA-MB-231; assay: Cell cycle arrest in human MDA-MB-231 cells harboring p53 mutant assessed as mitotic index at 25 uM measured after 48 hrs by Hoechst staining based fluorescence assay (reference value: 2.1); format: functional
# [51] = tested on: HCT-116; assay: Cell cycle arrest in human HCT116 cells harboring wild-type p53 assessed as mitotic index at 25 uM measured after 48 hrs by Hoechst staining based fluorescence assay (reference value: 2.3); format: functional
# [52] = tested on: PC-3; assay: Cell cycle arrest in human PC3 cells harboring p53 mutant assessed as mitotic index at 25 uM measured after 48 hrs by Hoechst staining based fluorescence assay (reference value: 2.5); format: functional
# [53] = tested on: HaCaT; assay: Cell cycle arrest in human HaCaT cells harboring […] p53 assessed as mitotic index at 25 uM measured after 48 hrs by Hoechst staining based fluorescence assay (reference value: 2.6); format: functional
# [54] = tested on: HCT-116; assay: Cell cycle arrest in human HCT116 cells assessed as accumulation at G2/M phase by Hoechst staining based fluorescence assay; format: functional
# [55] = tested on: PC-3; assay: Cell cycle arrest in human PC3 cells assessed as accumulation at G1/S phase by Hoechst staining based fluorescence assay; format: functional
smiles,measurement,setting,value
CC[C@H](CO)Nc1nc(NCc2ccccc2)c2ncn(C(C)C)c2n1 [SELICICLIB],IC50,[1],15.4 µM
same,IC50,[2],16.8 µM
same,IC50,[3],16.5 µM
same,IC50,[4],> 20 µM
same,IC50,[5],16.7 µM
same,IC50,[6],> 20 µM
same,IC50,[7],0.9 µM
same,IC50,[8],10.2 µM
same,Activity,[9],16%
same,Activity,[10],27%
same,Activity,[11],25%
same,Activity,[12],17%
same,Activity,[13],inactive
same,Activity,[14],inactive
same,Activity,[15],26%
same,Activity,[16],9%
same,Activity,[17],25%
same,Activity,[18],17%
same,Activity,[19],38%
same,Activity,[20],inactive
same,Activity,[21],inactive
same,Activity,[22],3%
same,Activity,[23],1.2%
same,Activity,[24],0.6%
same,Activity,[25],17%
same,Activity,[26],Active
same,Activity,[27],Active
same,Activity,[28],Active
same,Activity,[29],Active
same,Activity,[30],Active
same,Activity,[31],25%
Oc1cccc(-c2nc(N3CCOCC3)c3oc4ncccc4c3n2)c1 [PI-103],IC50,[1],> 20 µM
same,IC50,[32],2 µM
same,IC50,[2],> 20 µM
same,IC50,[33],3.9 µM
same,IC50,[3],7.6 µM
same,IC50,[4],> 20 µM
same,IC50,[5],3.5 µM
same,IC50,[6],> 20 µM
same,IC50,[7],2.9 µM
same,IC50,[8],13.3 µM
same,Ratio IC50,[34],>12.5
same,Ratio IC50,[35],>6.4
same,Ratio IC50,[36],>3.3
same,Ratio IC50,[37],>7.1
same,Ratio IC50,[38],>8.6
same,Ratio IC50,[39],>1.9
same,Activity,[40],inactive
same,Activity,[9],inactive
same,Activity_index,[41],1.4
same,Activity,[42],28%
same,Activity,[43],inactive
same,Activity,[10],inactive
same,Activity_index,[44],1.9
same,Activity,[11],63%
same,Activity_index,[45],0.4
same,Activity,[12],6%
same,Activity,[13],inactive
same,Activity,[14],inactive
same,Activity_index,[46],0.9
same,Activity,[15],20%
same,Activity,[47],inactive
same,Activity,[16],inactive
same,Activity_index,[48],0.9
same,Activity,[49],20%
same,Activity,[50],inactive
same,Activity,[17],inactive
same,Activity_index,[51],1.8
same,Activity,[18],63%
same,Activity_index,[52],0.1
same,Activity,[19],1.2%
same,Activity,[20],inactive
same,Activity,[21],inactive
same,Activity_index,[53],0.5
same,Activity,[22],12%
same,Activity,[54],Active
same,Activity,[55],Active
same,Activity,[29],Active

# — ChEMBL document CHEMBL3992552, “Mechanisms of action and structure-activity relationships of cytotoxic flavokawain derivatives” (Bioorg Med Chem, 2017)
